Values of other authors as cited in patent US8420131B2, “Composition for obesity treatment” (priority 2011, dated 2013).

Key:
[1] = in vivo
[2] = patients with PCOS
[3] = in vivo; remark: listed apart in the source
[4] = sixty depressed patients, added to imipramine therapy
[5] = test system: human white preadipocytes
[6] = humans
[7] = animal study

## O[C@H]1[C@H](O)[C@@H](O)[C@H](O)[C@@H](O)[C@H]1O [inositol]
[1]
  symptoms of depressed patients: significant improvement
[2]
  action of insulin / insulin sensitivity: increases the action of insulin
[3]
  decreasing the number of panic attacks, compared with fluvoxamine: superior

## [Zn] [zinc]
[4]
  depression scores: significantly reduced

## COc1ccc2cc3[n+](cc2c1OC)CCc1cc2c(cc1-3)OCO2 [berberine]
[5]
  adipogenesis: inhibit adipogenesis

## CC(/C=C/C=C(\C)C(=O)O[C@@H]1O[C@H](CO[C@@H]2O[C@H](CO)[C@@H](O)[C@H](O)[C@H]2O)[C@@H](O)[C@H](O)[C@H]1O)=C\C=C\C=C(C)\C=C\C=C(/C)C(=O)O[C@@H]1O[C@H](CO[C@@H]2O[C@H](CO)[C@@H](O)[C@H](O)[C@H]2O)[C@@H](O)[C@H](O)[C@H]1O [crocin]
lipase
  inhibition of the effect of lipase: potently inhibit

## CC(/C=C/C=C(\C)C(=O)O)=C\C=C\C=C(C)\C=C\C=C(/C)C(=O)O [crocetin]
Dose of 50 mg/kg versus orlistat at 10 mg/kg
  potency compared with orlistat: comparable
Mice fed on a high fat diet
  fat deposits: significantly reduced
lipase
  inhibition of the effect of lipase: potently inhibit

## [Mg+2] [magnesium]
[6]
  effectiveness in treating depression compared with imipramine: as effective as imipramine
[7]
  effect compared with imipramine: comparable
